From patent publication US7628765B2, “Increasing retrievable cells from a breast duct” (Cytyc Corporation, priority 2001, dated 2009)

System: breast ducts of live rabbits
Assay: Ductal fluid collection after intraductal injection of mannitol solution in live rabbit
Type: in vivo, New Zealand rabbit
Conditions: for recovery: out-flow liquid checked about an hour later
Description: The objective of these experiments was to test the effects of the introduction of a solution containing mannitol on the secretion of fluid from the breast ducts of live rabbits. New Zealand rabbit #3242, female, from Kraelik Farm in CA weighing 4.1 kg was used. The rabbit was anesthetized by injection of 200 mg of ketamine and 40 mg of Zylazine. A second injection of 100 mg of ketamine and 20 mg of xylazine was made 2 hours later to maintain the rabbit in a deep plane of anesthesia. The thorax and abdomen of the rabbit was shaved to expose the breasts and nipples.
A single lumen blue color catheter (O.D. 0.23″ ID 0.017; O.D. at the tip 0.011″-0.012″) was inserted into a duct in each nipple. Three nipples were tested, and 2 ducts per nipple were accessed with a catheter. The nipples were identified A, B, and C.
A duct on nipple A was injected with 0.20 ml of a 12.5% solution of D-Mannitol in H2O (available from Sigma Chemicals, St. Louis, Mo. cat# M-9546 lot 6710402: C6H14O6 FW 182.2) with a single catheter. The control duct on nipple A was injected with 0.20 ml of phosphate buffered saline (PBS). A microfuge tube was attached to the end of each catheter to collect out flow liquid. Ten minutes later 0.2 ml of a 12.5% solution of D-Mannitol in H2O was injected into the first duct and the second duct was injected with 0.20 ml of phosphate buffered saline, for a total volume injected in each duct of 0.40 ml.
A duct on nipple B was injected with 0.5 ml of a 12.5% solution of D-Mannitol in H2O with a single catheter. The control duct on nipple B was injected with 0.50 ml of phosphate buffered saline (PBS). A microfuge tube was attached to the end of each catheter to collect out-flow liquid.
A duct on nipple C was injected with 0.7 ml of a 12.5% solution of D-Mannitol in H2O with a single catheter. The control duct on nipple C was injected with 0.70 ml of phosphate buffered saline (PBS). A microfuge tube was attached to the end of each catheter to collect out flow liquid.
About an hour after the fluid containing mannitol or PBS was injected into the ducts via the catheters, the microfuge tubes were checked for whether any fluid was returned.

Structure (SMILES): OC[C@@H](O)[C@@H](O)[C@H](O)[C@H](O)CO [mannitol, D-Mannitol]
- ducts from which fluid can be collected (ducts injected with 12.5% mannitol solution, 0.4-0.7 ml, PBS control 1 out of 3): three out of three
- recovery (nipple A, duct A1, 0.4 ml total of 12.5% solution (2 x 0.2 ml, 10 min apart) injected intraductally): 310 ul liquid
- recovery (nipple B, duct B1, 0.5 ml of 12.5% solution injected intraductally): 490 ul liquid
- recovery (nipple C, duct C1, 0.7 ml of 12.5% solution injected intraductally): 280 ul liquid
